Numbered stars: 1 amine (or outer) side, 2 acyl side, 3 side chain; on linkers, the order of the positions; unused ones are H or OH. Bridge positions count the residues as written; N and C are the ends. Square brackets hold non-standard residues; d marks the D form. Peptide text beside a SMILES is read from it. * marks the point of attachment. 2Thenoyl(5-Cl) = O=C(c1ccc(Cl)s1)*; Benzoyl(4-Cl) = O=C(c1ccc(Cl)cc1)*; Cysteamide = C(CS[*:3])N[*:1]; X1 = O=C(/C=C/c1ccccc1)*; Api = NC1(C(=O)O)CCNCC1; Dap = NC[C@H](N)C(=O)O; Mpa = O=C(O)CCS
Target: MDM2 (Homo sapiens, UniProt Q00987)
Sequence (Q00987 whole entry): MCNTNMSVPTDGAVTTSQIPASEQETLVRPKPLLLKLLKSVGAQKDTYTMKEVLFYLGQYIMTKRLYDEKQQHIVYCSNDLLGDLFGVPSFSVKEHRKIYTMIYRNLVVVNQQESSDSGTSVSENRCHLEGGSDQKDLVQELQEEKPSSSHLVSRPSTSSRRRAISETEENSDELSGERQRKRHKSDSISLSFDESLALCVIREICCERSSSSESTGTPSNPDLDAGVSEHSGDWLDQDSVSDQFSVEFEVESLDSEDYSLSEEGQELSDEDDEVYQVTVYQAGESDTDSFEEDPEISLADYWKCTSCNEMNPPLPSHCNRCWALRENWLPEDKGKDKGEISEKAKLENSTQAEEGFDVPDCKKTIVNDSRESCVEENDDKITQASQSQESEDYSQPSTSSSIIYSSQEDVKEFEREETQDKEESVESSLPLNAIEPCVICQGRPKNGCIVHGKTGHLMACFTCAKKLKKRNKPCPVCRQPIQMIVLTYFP
Assay: MDM2 binding screen: displacement of fluorescent p53 peptide probe FP53 (fluorescence polarization)
Conditions: crude macrocycle reactions; for fraction fluorescent probe displaced, Screen: initial screen
Summary of the method: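 Single-point screen: one fluorescence anisotropy reading at 25 °C (485 nm excitation, 535 nm emission) per macrocycle. Crude macrocycle reactions, final 10 µM, were scored for displacing the fluorescent p53 peptide from human MDM2.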

Row | fraction fluorescent probe displaced, Screen (Acid 25) | fraction fluorescent probe displaced, Replicate (Acid 25) | fraction fluorescent probe displaced, Screen (Acid 14) | fraction fluorescent probe displaced, Replicate (Acid 14) | Structure (SMILES) | further results
1 | 0.19 | 0.07 |  |  | O=C1CCSSCCNC(=O)C2(CCN(C(=O)c3ccc(Cl)cc3)CC2)NC(=O)C2CCCN2C(=O)C(Cc2c[nH]c3ccccc23)N1 (stereo not drawn) [X W B1 D6 Acid 25] ([Mpa]WP[Api](Benzoyl(4-Cl))-Cysteamide; disulfide 1-C; configuration not given here) | 
2 | 0.19 | 0.17 |  |  | O=C1CCSSCCNC(=O)C2CN(C(=O)c3ccc(Cl)cc3)CCN2C(=O)C2CCCN2C(=O)C(Cc2c[nH]c3ccccc23)N1 (stereo not drawn) [X W B1 D7 Acid 25] | 
3 |  |  | 0.23 | 0.35 | O=C1CCNC(=O)[C@H](Cc2c[nH]c3ccccc23)NC(=O)CCSSCCNC(=O)[C@H](CNC(=O)c2ccc(Cl)s2)N1 [X W B2 D3 Acid 14] | 
4 | 0.28 | 0.22 |  |  | O=C1CCNC(=O)[C@H](Cc2c[nH]c3ccccc23)NC(=O)CCSSCCNC(=O)[C@H](CNC(=O)c2ccc(Cl)cc2)N1 [X W B2 D3 Acid 25] | 
5 |  |  |  |  | O=C(/C=C/c1ccccc1)NC[C@@H]1NC(=O)CCNC(=O)[C@H](Cc2c[nH]c3ccccc23)NC(=O)CCSSCCNC1=O [X W B2 D3 Acid 91] | fraction fluorescent probe displaced, Screen (Acid 91): 0.08; fraction fluorescent probe displaced, Replicate (Acid 91): 0.09
6 |  |  | 0.20 | -0.00432 | O=C1CCSSCCNC(=O)C2(CCN(C(=O)c3ccc(Cl)s3)CC2)NC(=O)CCNC(=O)[C@H](Cc2c[nH]c3ccccc23)N1 [X W B2 D6 Acid 14] | 
7 | 0.09 | 0.0465 |  |  | O=C1CCSSCCNC(=O)C2(CCN(C(=O)c3ccc(Cl)cc3)CC2)NC(=O)CCNC(=O)[C@H](Cc2c[nH]c3ccccc23)N1 [X W B2 D6 Acid 25] | 
8 |  |  |  |  | O=C1CCSSCCNC(=O)C2(CCN(C(=O)/C=C/c3ccccc3)CC2)NC(=O)CCNC(=O)[C@H](Cc2c[nH]c3ccccc23)N1 [X W B2 D6 Acid 91] | fraction fluorescent probe displaced, Screen (Acid 91): 0.22; fraction fluorescent probe displaced, Replicate (Acid 91): 0.09
9 | 0.25 | 0.30 |  |  | O=C1CCSSCCNC(=O)[C@H](CNC(=O)c2ccc(Cl)cc2)NC(=O)[C@H]2CCCN(C2)C(=O)[C@H](Cc2c[nH]c3ccccc23)N1 [X W B4 D3 Acid 25] | 
10 |  |  | 0.23 | 0.35 | O=C1CCSSCCNC(=O)C2CC(NC(=O)c3ccc(Cl)s3)CN2C(=O)C2CCCN(C2)C(=O)C(Cc2c[nH]c3ccccc23)N1 (stereo not drawn) [X W B4 D5 Acid 14] | 
11 |  |  |  |  | O=C(C=Cc1ccccc1)NC1CC2C(=O)NCCSSCCC(=O)NC(Cc3c[nH]c4ccccc34)C(=O)N3CCCC(C3)C(=O)N2C1 (stereo not drawn) [X W B4 D5 Acid 91] | fraction fluorescent probe displaced, Screen (Acid 91): 0.30; fraction fluorescent probe displaced, Replicate (Acid 91): 0.22
12 |  |  | 0.17 | 0.33 | O=C1CCSSCCNC(=O)C2(CCN(C(=O)c3ccc(Cl)s3)CC2)NC(=O)[C@H]2CCCN(C2)C(=O)[C@H](Cc2c[nH]c3ccccc23)N1 [X W B4 D6 Acid 14] | 
13 | 0.25 | 0.12 |  |  | O=C1CCSSCCNC(=O)C2(CCN(C(=O)c3ccc(Cl)cc3)CC2)NC(=O)[C@H]2CCCN(C2)C(=O)[C@H](Cc2c[nH]c3ccccc23)N1 [X W B4 D6 Acid 25] | 
14 |  |  | 0.34 | 0.33 | O=C1CCSSCCNC(=O)C2CN(C(=O)c3ccc(Cl)s3)CCN2C(=O)C2CCCN(C2)C(=O)C(Cc2c[nH]c3ccccc23)N1 (stereo not drawn) [X W B4 D7 Acid 14] | 
15 |  |  | 0.20 | 0.30 | O=C1CCSSCCNC(=O)[C@H](CNC(=O)c2ccc(Cl)s2)NC(=O)c2cccc(c2)CNC(=O)[C@H](Cc2c[nH]c3ccccc23)N1 [X W B5 D3 Acid 14] | 
16 | 0.41 | 0.22 |  |  | O=C1CCSSCCNC(=O)[C@H](CNC(=O)c2ccc(Cl)cc2)NC(=O)c2cccc(c2)CNC(=O)[C@H](Cc2c[nH]c3ccccc23)N1 [X W B5 D3 Acid 25] | 
17 |  |  |  |  | O=C(/C=C/c1ccccc1)NC[C@@H]1NC(=O)c2cccc(c2)CNC(=O)[C@H](Cc2c[nH]c3ccccc23)NC(=O)CCSSCCNC1=O [X W B5 D3 Acid 91] | fraction fluorescent probe displaced, Screen (Acid 91): 0.03; fraction fluorescent probe displaced, Replicate (Acid 91): 0.07
18 |  |  | 0.14 | 0.10 | O=C1CCSSCCNC(=O)C2CC(NC(=O)c3ccc(Cl)s3)CN2C(=O)c2cccc(c2)CNC(=O)C(Cc2c[nH]c3ccccc23)N1 (stereo not drawn) [X W B5 D5 Acid 14] | 
19 |  |  |  |  | O=C(C=Cc1ccccc1)NC1CC2C(=O)NCCSSCCC(=O)NC(Cc3c[nH]c4ccccc34)C(=O)NCc3cccc(c3)C(=O)N2C1 (stereo not drawn) [X W B5 D5 Acid 91] | fraction fluorescent probe displaced, Screen (Acid 91): 0.08; fraction fluorescent probe displaced, Replicate (Acid 91): 0.17
20 |  |  | 0.14 | 0.17 | O=C1CCSSCCNC(=O)C2(CCN(C(=O)c3ccc(Cl)s3)CC2)NC(=O)c2cccc(c2)CNC(=O)[C@H](Cc2c[nH]c3ccccc23)N1 [X W B5 D6 Acid 14] | 
21 | 0.0244 | 0.12 |  |  | O=C1CCSSCCNC(=O)C2CN(C(=O)c3ccc(Cl)cc3)CCN2C(=O)c2cccc(c2)CNC(=O)C(Cc2c[nH]c3ccccc23)N1 (stereo not drawn) [X W B5 D7 Acid 25] | 
22 |  |  |  |  | O=C1CCSSCCNC(=O)C2CN(C(=O)C=Cc3ccccc3)CCN2C(=O)c2cccc(c2)CNC(=O)C(Cc2c[nH]c3ccccc23)N1 (stereo not drawn) [X W B5 D7 Acid 91] | fraction fluorescent probe displaced, Screen (Acid 91): 0.16; fraction fluorescent probe displaced, Replicate (Acid 91): 0.0168
23 |  |  | 0.28 | 0.28 | O=C1CCSSCCNC(=O)[C@@H]2CCCN2C(=O)[C@H](CNC(=O)c2ccc(Cl)s2)NC(=O)[C@H](Cc2c[nH]c3ccccc23)N1 [X W D3 B1 Acid 14] ([Mpa]W[Dap](2Thenoyl(5-Cl))P-Cysteamide; disulfide 1-C) | 
24 | 0.32 | 0.30 |  |  | O=C1CCSSCCNC(=O)[C@@H]2CCCN2C(=O)[C@H](CNC(=O)c2ccc(Cl)cc2)NC(=O)[C@H](Cc2c[nH]c3ccccc23)N1 [X W D3 B1 Acid 25] ([Mpa]W[Dap](Benzoyl(4-Cl))P-Cysteamide; disulfide 1-C) | 
25 |  |  |  |  | O=C(/C=C/c1ccccc1)NC[C@@H]1NC(=O)[C@H](Cc2c[nH]c3ccccc23)NC(=O)CCSSCCNC(=O)[C@@H]2CCCN2C1=O [X W D3 B1 Acid 91] ([Mpa]W[Dap](X1)P-Cysteamide; disulfide 1-C) | fraction fluorescent probe displaced, Screen (Acid 91): 0.11; fraction fluorescent probe displaced, Replicate (Acid 91): -0.00827
26 |  |  |  |  | O=C(/C=C/c1ccccc1)NC[C@@H]1NC(=O)[C@H](Cc2c[nH]c3ccccc23)NC(=O)CCSSCCNC(=O)CCNC1=O [X W D3 B2 Acid 91] | fraction fluorescent probe displaced, Screen (Acid 91): 0.08; fraction fluorescent probe displaced, Replicate (Acid 91): 0.04
27 | 0.28 | 0.12 |  |  | O=C1CCSSCCNC(=O)[C@H]2CCCN(C2)C(=O)[C@H](CNC(=O)c2ccc(Cl)cc2)NC(=O)[C@H](Cc2c[nH]c3ccccc23)N1 [X W D3 B4 Acid 25] | 

Source: publication PMC9250534, “Synthesis and direct assay of large macrocycle diversities by combinatorial late-stage modification at picomole scale” (Nature Communications, 2022)
